Data: patent US8138314B2, “Compositions and methods of monoclonal and polyclonal antibodies specific for T cell subpopulations” (Beth Israel Deaconess Medical Center, Inc., priority 2000, dated 2012)

Tests used:
invariant NK T cells = test: 6B11 FACS sort or magnetic bead immunoaffinity purification of PBMC followed by expansion; format: cell-based, human; settings: for Yield of invariant T cells: addition during expansion of 6B11 bead purified cells (FIGS. 12-17)
Description: Starting with PBMC in which approximately 0.05% of the lymphocytes in PBMC are invariant T cells, approximately 5-30% of the purified and expanded cells were invariant T cells.
PBMC or another tissue source is blocked with autologous serum at 4° C. An antibody reactive with invariant T cells (e.g., 6B11 or 3A6 antibody) is added at a ratio of about 1-10 μg antibody/10^7-8 PBMC and incubated for 20 minutes at 4° C. The antibody used in this method may be directly labeled with a conjugate such as FITC or biotin, or the antibody may be indirectly labeled with second reagent (e.g., anti-IgG-Fluorochrome or streptavidin-Fluorochrome). One or more other antibodies labeled with different fluorophores may also be added (FIGS. 7A-7C and 9). The solution of cells and antibodies is then washed using PBS or any other physiological buffer to remove unbound antibody.
If desired, the settings of the FACS cell sorter may be adjusted using either a positive (e.g., general anti-T cell antibody) or negative control antibody. The sample of interest may be analyzed at a rate of approximately 100 million cells per hour using a high speed FACS sorter (e.g., ‘MoFlo’FACS sorter). The purified T cells may be expanded in T cell media [e.g., 10% Fetal Bovine or human autologous or AB pooled serum in RPMI-1640 or equivalent media supplemented with buffer (e.g. Hepes), glutamine, and antibiotic (e.g., gentamicin)] in the presence of a mitogen such as PHA, an anti-CD3 antibody, the 6B11 antibody, the 3A6 antibody, and/or α-GalCer antigenic stimulus CD3 monoclonal antibody (Exley et al. 1997 and 1998, supra; Wilson et al., Nature 391:177, 1998). The antibody may be in solution or plate bound. Irradiated autologous feeders and IL-2 (10-100 U/ml) may also be added immediately or added at any time point during expansion. IL-7 (˜1-10 ng/ml) and/or IL-15 (˜1-10 ng/ml) may increase invariant NK T cells yields (e.g. Wilson et al. 1998, supra; van der Vliet et al. Journal of Immunological Methods 247:61-72, 2000). Dexamethasone or a related selective immune suppressive agent (˜1 μM) may preferentially enhance the growth of invariant NK T cells while inhibiting growth of conventional T cells (e.g. Milner et al., J. Immunol. 163(5):2522-25229, 1999). The media is replaced about twice a week with fresh media. During or subsequent to expansion (e.g., 2-4 weeks after expansion has begun), the T cells may be phenotypically analyzed by FACS. This analysis may be performed by staining with 6B11, anti-Vα24, anti-Vβ11, anti-CD4, anti-CD8αβ, or anti-CD161 antibodies.
PBMC or another tissue source is blocked with 1-10% autologous serum by mixing at 4° C. in PBS or other physiological buffer. One or more antibodies that are reactive with invariant T cells (e.g., 6B11 or 3A6 antibody) is added at a ratio of about 1-10 μg monoclonal antibody/10^7-8 PBMC is incubated for 20 minutes at 4° C. The antibody used in this method may be directly labeled with a conjugate such as FITC or biotin or the antibody may be indirectly labeled with second reagent (e.g., anti-IgG-Fluorochrome or streptavidin-Fluorochrome). One or more other antibodies labeled with different fluorophores may also be added (FIGS. 7A-7C and 9). The solution of cells and antibodies is then washed using PBS or any other physiological buffer. Magnetic beads, such as ˜10-100 μl Miltenyi MACS Microbeads Anti-mouse IgG #484 or MACS Steptavidin Microbeads #481 per 10^7-8 PBMC; 10^5-7 Dynal Anti-IgG #M450 beads per 10^7-8 PBMC are added and the solution is mix at 4° C. […] The washed, purified cells are placed into multi-wells with T cell media [10% Fetal Bovine or human autologous or AB pooled serum in RPMI-1640 or equivalent media supplemented with buffer (e.g. Hepes), glutamine, and antibiotic (e.g. gentamicin)]. The cells may be expanded using a monoclonal antibody that is directly bound to the beads or in solution. […]

[1] = test system: Vα24^+ Vβ11^+ invariant NK T cells; test: Ex vivo expansion of FACS purified Vα24^+ T cells with α-GalCer and autologous irradiated PBMCs, flow cytometry; format: cell-based, human
Description: Peripheral blood (10-20 ml) was drawn in heparin containing tubes from healthy donors and prostate cancer patients who had given their informed consent. PBMCs were isolated using Ficoll-Paque (Amersham Pharmacia, Uppsala, Sweden). Vα24 positive T cells were stained with an anti-Vα24 monoclonal antibody (C15) (Coulter, Miami, Fla.) followed by a goat anti-mouse IgG (H^+L) FITC conjugate (KPL, Gaithersburg, Md.) and were sorted by high speed FACS (Modular Flow FACS, Cytomation, Boulder, Colo.) (Dellabona et al., J. Exp. Med. 180:1171, 1994). Autologous PBMCs were irradiated (5000 rads) and used as APCs. The FACS purified Vα24^+ cells were initially co-cultured in 96 well flat bottomed plates (approximately 20,000 per well) with equal numbers of autologous irradiated PBMCs in the presence of α-GalCer (50 ng/ml, KRN7000, Kirin Brewery Co., Gunma, Japan) and recombinant IL-2 (100 U/ml) (National Cancer Institute, Bethesda, Md.). Cultures were then gradually expanded into 24 well plates using the same medium. In some cultures, human recombinant IL-12 (1 ng/ml) (Genetics Institute, Cambridge, Mass.) was added during the last week of culture.
Phenotypic analysis of α-GalCer expanded cells was performed by two or three color flow cytometery after three to four weeks in culture. Previous reports have shown that dual staining for Vα24 and Vβ11 is a marker of invariant NK T cells, as Vα24 and Vβ11 are used very infrequently by bulk T cells (Dellabona et al., J. Exp. Med. 180:1171, 1994; Exley et al., J. Exp. Med. 186:109, 1997; Prussin and Foster J. Immunol. 159:5862, 1997). Antibodies used were anti-Vα24 PE, anti-Vβ11 FITC, anti-CD8β PE (Immunotech), anti-CD3 Cychrome, anti-CD161 PE, and anti-CD4 Cychrome (PharMingen, La Jolla, Calif.). As described previously (Exley et al., J. Exp. Med. 186:109, 1997; Exley et al., J. Exp. Med. 188:867, 1998), approximately 1×10^6 cells were suspended in 50 μl of FACS buffer (phosphate buffered saline with 1% fetal bovine serum and 0.1% NaN3) in single wells of 96 well plates (Exley et al., J. Exp. Med. 186:109, 1997; Exley et al, J. Exp. Med. 188:867, 1998). Non-specific antibody binding was blocked by pre-incubating cells with 10% human serum for 15 minutes on ice. Antibodies were then added to cell suspensions and incubated for 20 minutes on ice. Cells were washed twice with FACS buffer and analyzed using a FACScan (Becton Dickinson) with Cell Quest Software.
Due to the small numbers of invariant NK T cells in peripheral blood, one round of ex vivo expansion was carried out to further assess the frequency and function of these cells. Invariant NK T cells from healthy donors and advanced prostate cancer patients were isolated from peripheral blood through an initial FACS purification with a Vα24 specific monoclonal antibody, followed by selective expansion in vitro for three to four weeks with α-GalCer and autologous irradiated PBMCs as a source of APCs. T cells were then analyzed by dual staining with Vα24 and Vβ11 or 6B11 monoclonal antibodies.

[2] = expansion using α-GalCer after expansion using 6B11
[3] = addition during expansion, at the concentrations tested (FIGS. 12-17)

CCCCCCCCCCCCCCCCCCCCCCCCCC(=O)N[C@@H](CO[C@H]1O[C@H](CO)[C@H](O)[C@H](O)[C@H]1O)[C@H](O)[C@H](O)CCCCCCCCCCCCCC [α-GalCer, α-galactosylceramide]
Number of invariant T cells (invariant NK T cells; [2]): did increase the number of invariant T cells | Purity of invariant T cells (invariant NK T cells; [2]): did not improve the purity of invariant T cells | Invariant NK T cells among expanded cells ([1]; androgen ablation refractory prostate cancer patient (FIG. 21B)): 13.6% | Invariant NK T cells among expanded cells ([1]; androgen ablation treated prostate cancer patient in remission (FIG. 21C)): 75% | Invariant NK T cells among expanded cells ([1]; healthy donor (FIG. 21A)): 98.5% | Vα24^+ Vβ11^+ population of total cells ([1]; healthy donor, α-GalCer and autologous irradiated PBMCs (FIG. 20B)): 94.4% | Recovery of Vα24^+ Vβ11^+ invariant NK T cells, mean ([1]; healthy donors (FIG. 21D)): > 80% | Recovery of Vα24^+ Vβ11^+ invariant NK T cells, mean ([1]; series of advanced androgen independent prostate cancer patients (FIG. 21D)): 10% | Expanded Vα24^+ Vβ11^+ T cells expressing CD161 ([1]; series of healthy donors, each donor): > 70%

IL-15: cytokine added to T cell medium at 10 ng/ml
Yield of invariant T cells (invariant NK T cells): increased the yield of invariant T cells | Purity of invariant T cells (invariant NK T cells; [3]): did not increase the purity of invariant T cells

phytohemagglutinin [PHA]
Vα24^+ Vβ11^+ T cell population after stimulation ([1]; FACS purified Vα24^+ T cells stimulated with mitogen (FIG. 20A)): yielded only a minor population of Vα24^+ Vβ11^+ T cells

B1: IL-7: cytokine added to T cell medium at 10 ng/ml (protein, UniProt P13232 26-177, looked up)
Interleukin-7: DCDIEGKDGKQYESVLMVSIDQLLDSMKEIGSNCLNNEFNFFKRHICDANKEGMFLFRAARKLRQFLKMNSTGDFDLHLLKVSEGTTILLNCTGQVKGRKPAALGEAQPTKSLEENKSLKEQKKLNDLCFLKRLLQEIKTCWNKILMGTKEH
Yield of invariant T cells (invariant NK T cells): increased the yield of invariant T cells | Purity of invariant T cells (invariant NK T cells; [3]): did not increase the purity of invariant T cells
